Assay results: patent US20060069076A1, “LXR/RXR-related methods and compositions” (priority 2004, published 2006)

How the values were obtained:
Format in all cases: cell-based, mouse
[1] = tested on: Aβ secretion from Neuro2a-APPSw cells; experiment: Secreted Aβ from Neuro2a-APPSw cells after LXR activation (immunoprecipitation and immunoblotting)
Procedure: Neuro2a-APPSw cells were treated with LXR activators (TO or 22(R)-hydroxycholesterol) and in some cases also with RXR activator (9-cis-retinoic acid). Secreted Aβ (sAβ) was detected in medium by immunoprecipitation and immunoblotting. Cellular APP (cAPP) levels were measured by immunoblotting cell lysates. Western blots were scanned and quantified by ImageQuant. The bar graphs show the combined results (means±S.E.) from at least three independent experiments. A, cells were treated with increasing amounts of TO. B, cells were treated with mock transfection (control) or 1 μM TO, μM 9-cis-RA. C, cells were treated with mock transfection or 5 μM 22(R)-hydroxycholesterol (22(R)OHchol), 10 μM 9-cis-RA. #, p<0.05 compared with control. *, p<0.01 compared with control. […]
In experiments with LXR activation, the cells were first induced with activators for 24 h in DMEM, 5% lipoprotein-deficient serum. […] The immunoblots were developed using the ECL system (Pierce) scanned and quantified by ImageQuant (Molecular Dynamics). Quantitation of Aβ40 and Aβ42 was performed using a commercial Aβ enzyme-linked immunosorbent assay kit. […]
The cells were treated with increasing doses of the synthetic LXRα/β activator TO901317 (“TO”), and Aβ secretion into medium was measured by immunoprecipitation and Western blotting (FIG. 1A).

[2] = tested on: efflux of cellular phospholipids, Neuro2a cells; experiment: Cellular phospholipid efflux from ABCA1-expressing Neuro2a cells; conditions: expression of ABCA1 and addition of apoA-I
[3] = tested on: cellular cholesterol efflux, Neuro2a cells; experiment: Cellular cholesterol efflux from ABCA1-expressing Neuro2a cells; conditions: expression of ABCA1 and addition of apoA-I (10 μg/ml, 6 h)
Procedure: The efflux experiments were performed as described (13). Briefly, Neuro2a cells were labeled with 1 μCi/ml [1.2-^3H(N)]-cholesterol (PerkinElmer Life Sciences) in DMEM containing 5 mM methyl-β-cyclodextrin:cholesterol at a molar ratio of 8:1 for 15 min at 37° C. After washing, the cells were equilibrated in DMEM, 0.2% bovine serum albumin for 30 min and then used for efflux experiments. […] The cells were lysed in 0.1 M sodium hydroxide, 0.1% SDS, and radioactivity was determined by liquid scintillation counting. Efflux was expressed as the percentage of radioactivity in the medium relative to the total radioactivity in cells and medium.
(§1) Cellular cholesterol mass was also measured.

[4] = tested on: Aβ secretion from Neuro2a-APPSw cells; experiment: Aβ secretion from ABCA1- or mock-transfected Neuro2a-APPSw cells with added apolipoproteins; conditions: apolipoprotein added for 6 h, compared with ABCA1 without apolipoprotein
Procedure: FIGS. 3A-3C: ABCA1 overexpression inhibits Aβ secretion.
FIG. 4: The effect of apoE isoforms on Aβ secretion.
as §1
Because apoE is a major apolipoprotein in the central nervous system and the apoE4 isoform is associated with increased risk of AD (19, 20), the effects of apoE on Aβ formation was also examined. […] Again, the major effect was attributable to ABCA1 expression alone.

[5] = tested on: Aβ generation from C99 in Neuro2a cells; experiment: γ-Secretase cleavage of C99 Myc in Neuro2a cells transfected with ABCA1; conditions: Neuro2a cells transfected with C99 Myc and ABCA1; apoA-I added; data not shown
Procedure: FIGS. 5A-5B: ABCA1 overexpression decreases β-cleavage of APPSw and γ-cleavage of the 99-amino acid C-terminal fragment of APP. A, Neuro2a-APPSw cells were transfected with either empty vector or vector containing ABCA1 cDNA. The β-cleavage product C99 was detected by immunoprecipitation of cell lysates with antibody 4G8 followed by immunoblotting with 6E10. Cellular APP (cAPP) level was measured by immunoblotting cell lysates. The data are the means±S.E. for five separate experiments; *, p<0.01 compared with mock (mk) transfected. B, Neuro2a cells were transfected with vector containing either C99 Myc alone or C99 Myc with ABCA1. Aβ was detected as in FIG. 3. Cellular C99 was detected by immunoprecipitation with anti-Myc antibody followed by Western blot with 6E10. The data are shown for three separate experiments conducted in duplicate. #, p<0.05 compared with C99 transfected alone.
Both β and γ-cleavage of APP are required for the generation of Aβ. A series of experiments were carried out to determine which step is affected by ABCA1 overexpression. To measure β-cleavage, the β-secretase cleavage product was immunoprecipitated (C99 ) from cell lysates. There was an 85% decrease of cellular C99 in Neuro2a-APPSw cells transiently transfected with ABCA1 compared with mock transfected control (FIG. 5A). γ-Secretase mediates the final step in Aβ generation (1). […]

Molecule	reduction in secretion of Aβ into medium ([1]; 1 μM TO, 24 h induction, 4 h medium, immunoprecipitation and Western blotting (FIG. 1A)) [%]	amount of soluble form of APP (APPsα) in medium ([1]; administration of the LXR activator, data not shown)	increase in efflux of cellular phospholipids [2]	increase in cellular cholesterol efflux [3]	further change in Aβ on adding apolipoprotein to ABCA1-expressing cells [4]	further decrease in Aβ generation from C99 [5]
O=S(=O)(c1ccccc1)N(CC(F)(F)F)c1ccc(C(O)(C(F)(F)F)C(F)(F)F)cc1 [TO901317]	~50	not significantly changed				
apoA-I: purified human apolipoprotein A-I, from Biodesign			1.9 % of total cellular choline-labeled lipids	1.0±0.1 % of total cellular cholesterol	only a slight further decrease	did not provide a further decrease
